Measurements taken from patent US20180110762A1, “Compositions Methods for Treating Chronic Kidney Disease” (Merck Sharp & Dohme Corp, priority 2015, published 2018).

Tested on: male obese ZSF1 rats (diabetic nephropathy model)
Experiment: ZSF1 rat 28-week in-feed study: urinary protein (UPCR, 24 h excretion)
Type: in vivo
Conditions: for 24 h Urinary Protein Excretion / UPCR (urinary protein/creatinine ratio): obese ZSF1 rats
Method: The effects of Compound A (“A”) on renal function, plasma triglycerides, plasma cholesterol, kidney collagen I, kidney collagen III, renal histology, glomerular filtration rate, fibrosis score, and mRNA gene expression (profibrotic genes and integrin β3) were evaluated in male obese ZSF1 rats (a hybrid F1 of Zucker diabetic fatty rat and spontaneously hypertensive heart failure rat; a diabetic nephropathy model) when administered as in-feed for 28 weeks. Sixty obese male ZSF1 rats were randomized to five groups: Obese control (n=12), Compound A 60 mpk (n=12), Compound A 200 mpk (n=12), Compound A 400 mpk (n=12), Enalapril 10 mpk (n=12); Eight lean male ZSF1 rats were used for normal control. Renal functional changes were monitored by blood and urine analysis following in-feed dosing for 28 weeks. Compound exposure was also monitored during the study.

Structure (SMILES): COc1ccc([C@H](CC(=O)O)N2CCN(CCCc3ccc4c(n3)NCCC4)C2=O)cn1 [Compound A, 3-{2-Oxo-3-[3-(5,6,7,8-tetrahydro-[1,8]naphthyridin-2-yl)-propyl]imidazolidin-1-yl}-3 (S)-(6-methoxy-pyridin-3-yl)-propionic acid]
- effect on urinary protein/creatinine ratio (UPCR) (400 mpk, 16-, 21-, 24- and 28-week of treatment): significantly decreased
- effect on 24 h urinary protein excretion (400 mpk, 16-, 24- and 28-week of treatment): significantly decreased
- renal protection: proteinuria and albuminuria (ZSF-1 rats vs untreated obese ZSF-1 rats (summary)): ameliorating proteinuria and albuminuria
- 24 h Urinary Protein Excretion (60 mpk in-feed, week 1): 137.2 ± 12.7 mg/24 h
- UPCR (urinary protein/creatinine ratio) (60 mpk in-feed, week 1): 12.3 ± 1.0 mg/mg
- 24 h Urinary Protein Excretion (60 mpk in-feed, week 2): 139.6 ± 11.8 mg/24 h
- UPCR (urinary protein/creatinine ratio) (60 mpk in-feed, week 2): 11.9 ± 1.0 mg/mg
- 24 h Urinary Protein Excretion (60 mpk in-feed, week 4): 158.4 ± 13.7 mg/24 h
- UPCR (urinary protein/creatinine ratio) (60 mpk in-feed, week 4): 13.4 ± 1.1 mg/mg
- 24 h Urinary Protein Excretion (60 mpk in-feed, week 6): 197.9 ± 15.7 mg/24 h
- UPCR (urinary protein/creatinine ratio) (60 mpk in-feed, week 6): 16.6 ± 1.2 mg/mg
- 24 h Urinary Protein Excretion (60 mpk in-feed, week 8): 265.7 ± 18.3 mg/24 h
- UPCR (urinary protein/creatinine ratio) (60 mpk in-feed, week 8): 20.2 ± 1.4 mg/mg
- 24 h Urinary Protein Excretion (60 mpk in-feed, week 12): 425.3 ± 21.6 mg/24 h
- UPCR (urinary protein/creatinine ratio) (60 mpk in-feed, week 12): 30.8 ± 1.7 mg/mg
- 24 h Urinary Protein Excretion (60 mpk in-feed, week 16): 462.2 ± 30.4 mg/24 h
- UPCR (urinary protein/creatinine ratio) (60 mpk in-feed, week 16): 27.3 ± 1.7 mg/mg
- 24 h Urinary Protein Excretion (60 mpk in-feed, week 21): 486.2 ± 39.2 mg/24 h
- UPCR (urinary protein/creatinine ratio) (60 mpk in-feed, week 21): 27.7 ± 2.0+ mg/mg
- 24 h Urinary Protein Excretion (60 mpk in-feed, week 24): 582.0 ± 43.9 mg/24 h
- UPCR (urinary protein/creatinine ratio) (60 mpk in-feed, week 24): 34.4 ± 2.3 mg/mg
- 24 h Urinary Protein Excretion (60 mpk in-feed, week 28): 654.3 ± 48.1 mg/24 h
- UPCR (urinary protein/creatinine ratio) (60 mpk in-feed, week 28): 37.5 ± 2.8 mg/mg
- 24 h Urinary Protein Excretion (60 mpk in-feed, week −2): 128.8 ± 11.0 mg/24 h
- UPCR (urinary protein/creatinine ratio) (60 mpk in-feed, week −2): 10.9 ± 0.9 mg/mg
- 24 h Urinary Protein Excretion (200 mpk in-feed, week 1): 117.7 ± 9.4 mg/24 h
- UPCR (urinary protein/creatinine ratio) (200 mpk in-feed, week 1): 10.7 ± 0.8 mg/mg
- 24 h Urinary Protein Excretion (200 mpk in-feed, week 2): 124.9 ± 10.9 mg/24 h
- UPCR (urinary protein/creatinine ratio) (200 mpk in-feed, week 2): 10.9 ± 1.0 mg/mg
- 24 h Urinary Protein Excretion (200 mpk in-feed, week 4): 140.0 ± 12.4 mg/24 h
- UPCR (urinary protein/creatinine ratio) (200 mpk in-feed, week 4): 12.1 ± 1.1 mg/mg
- 24 h Urinary Protein Excretion (200 mpk in-feed, week 6): 167.1 ± 15.0 mg/24 h
- UPCR (urinary protein/creatinine ratio) (200 mpk in-feed, week 6): 14.1 ± 1.2 mg/mg
- 24 h Urinary Protein Excretion (200 mpk in-feed, week 8): 233.9 ± 18.7 mg/24 h
- UPCR (urinary protein/creatinine ratio) (200 mpk in-feed, week 8): 18.0 ± 1.5 mg/mg
- 24 h Urinary Protein Excretion (200 mpk in-feed, week 12): 400.5 ± 20.5 mg/24 h
- UPCR (urinary protein/creatinine ratio) (200 mpk in-feed, week 12): 28.7 ± 1.6 mg/mg
- 24 h Urinary Protein Excretion (200 mpk in-feed, week 16): 452.2 ± 27.6 mg/24 h
- UPCR (urinary protein/creatinine ratio) (200 mpk in-feed, week 16): 26.3 ± 1.5 mg/mg
- 24 h Urinary Protein Excretion (200 mpk in-feed, week 21): 489.0 ± 28.6 mg/24 h
- UPCR (urinary protein/creatinine ratio) (200 mpk in-feed, week 21): 28.1 ± 1.6+ mg/mg
- 24 h Urinary Protein Excretion (200 mpk in-feed, week 24): 541.6 ± 32.3 mg/24 h
- UPCR (urinary protein/creatinine ratio) (200 mpk in-feed, week 24): 32.0 ± 1.9 mg/mg
- 24 h Urinary Protein Excretion (200 mpk in-feed, week 28): 646.2 ± 44.6 mg/24 h
- UPCR (urinary protein/creatinine ratio) (200 mpk in-feed, week 28): 36.5 ± 2.3 mg/mg
- 24 h Urinary Protein Excretion (200 mpk in-feed, week −2): 122.3 ± 9.5 mg/24 h
- UPCR (urinary protein/creatinine ratio) (200 mpk in-feed, week −2): 10.7 ± 0.9 mg/mg
- 24 h Urinary Protein Excretion (400 mpk in-feed, week 1): 138.5 ± 11.3 mg/24 h
- UPCR (urinary protein/creatinine ratio) (400 mpk in-feed, week 1): 12.3 ± 0.9 mg/mg
- 24 h Urinary Protein Excretion (400 mpk in-feed, week 2): 148.8 ± 12.3 mg/24 h
- UPCR (urinary protein/creatinine ratio) (400 mpk in-feed, week 2): 12.5 ± 0.9 mg/mg
- 24 h Urinary Protein Excretion (400 mpk in-feed, week 4): 148.0 ± 8.3 mg/24 h
- UPCR (urinary protein/creatinine ratio) (400 mpk in-feed, week 4): 12.7 ± 0.6 mg/mg
- 24 h Urinary Protein Excretion (400 mpk in-feed, week 6): 162.6 ± 11.7 mg/24 h
- UPCR (urinary protein/creatinine ratio) (400 mpk in-feed, week 6): 13.8 ± 0.9 mg/mg
- 24 h Urinary Protein Excretion (400 mpk in-feed, week 8): 224.8 ± 16.3 mg/24 h
- UPCR (urinary protein/creatinine ratio) (400 mpk in-feed, week 8): 17.8 ± 1.2 mg/mg
- 24 h Urinary Protein Excretion (400 mpk in-feed, week 12): 358.4 ± 19.9 mg/24 h
- UPCR (urinary protein/creatinine ratio) (400 mpk in-feed, week 12): 26.9 ± 1.5 mg/mg
- 24 h Urinary Protein Excretion (400 mpk in-feed, week 16): 360.5 ± 19.7++ mg/24 h
- UPCR (urinary protein/creatinine ratio) (400 mpk in-feed, week 16): 20.9 ± 1.0++ mg/mg
- 24 h Urinary Protein Excretion (400 mpk in-feed, week 21): 448.1 ± 19.6 mg/24 h
- UPCR (urinary protein/creatinine ratio) (400 mpk in-feed, week 21): 26.0 ± 1.3++ mg/mg
- 24 h Urinary Protein Excretion (400 mpk in-feed, week 24): 483.8 ± 27.1++ mg/24 h
- UPCR (urinary protein/creatinine ratio) (400 mpk in-feed, week 24): 28.1 ± 1.7++ mg/mg
- 24 h Urinary Protein Excretion (400 mpk in-feed, week 28): 554.9 ± 28.3++ mg/24 h
- UPCR (urinary protein/creatinine ratio) (400 mpk in-feed, week 28): 31.2 ± 1.7++ mg/mg
- 24 h Urinary Protein Excretion (400 mpk in-feed, week −2): 127.0 ± 11.0 mg/24 h
- UPCR (urinary protein/creatinine ratio) (400 mpk in-feed, week −2): 10.8 ± 0.9 mg/mg
